Experimental data as given in patent US20260335468A1, “MOLECULAR RADIOAFTERGLOW PROBES FOR CANCER RADIODYNAMIC THERANOSTICS” (NANYANG TECHNOLOGICAL UNIVERSITY, priority 2023, published 2026).

What was measured:
[1] = Afterglow through chicken breast tissue (tissue penetration depth study); assay type: physicochemical
Protocol: IDPASu (100 M, 100 l) solution in a round cap with a diameter of 1 cm was prepared and placed under the chicken breast tissue with different thicknesses (0, 1.0, 2.5, 5.0, 10.0 and 15.0 cm). To avoid the influence of afterglow intensity differences on tissue penetration, the X-ray source (Moxtek, Inc.) and xenon lamp (PLS-SEX300D, Beijing Perfectlight Technology Co., Ltd.) were optimized to ensure that all the samples at 0 cm (without coverage) received the same dose of X-rays (5 mGy, 250 μGy s^−1 for 20 s) or light (180 mW cm^−2 for 20 s) and thus the same afterglow intensity. After the cessation of irradiation, radio afterglow or photoafterglow was detected with or without the chicken breast tissues using the IVIS bioluminescence mode with an open filter and acquisition time of 120 s.
To induce afterglow, IDPASu was irradiated with X-ray or light through chicken breast tissues before signal detection (FIGS. 11a-b). To eliminate the influence of intensity difference on tissue penetration, X-ray and light irradiation were optimized to ensure similar intensity without tissue coverage. […] Radio afterglow of IDPASu was inducible and detectable even through ~15 cm tissue, showing ~4.2-fold higher signal than that of IDPASu without X-ray irradiation and tissue (FIG. 11d).

[2] = test system: U87MG subcutaneous tumor; assay: X-ray-induced afterglow in U87MG subcutaneous tumor-bearing mice; assay type: in vivo, Balb/c nude mice; settings: local injection
Protocol: For in vivo RAI by IDPASu, subcutaneous U87-tumour-bearing mice were intratumorally injected with IDPASu(100 μM, […]) solubilized with P-cyclodextrin (100 μM). Each group has three mice. At different post-injection timepoints (0, 0.5, 1.0, 2.0, 4.0, 6.0, 8.0, 12.0, 16.0 and 24.0 h), the tumours were irradiated with X-rays (5 mGy, 250 μGy s^−1 for 20 s), followed by radio afterglow detection using the IVIS imaging system under the bioluminescence mode with an open filter and acquisition time of 120 s. Tumour-free areas were protected by a 3.4-mm-thick lead shield with a notch. […] Radio afterglow signals from brain tumours were recorded with the IVIS imaging system under the bioluminescence mode with an open filter and acquisition time of 120 s. […] The tumour sizes were calculated as per the above-mentioned equation, showing ~0 mm^3 for 1 day post-implantation, 6 mm^3 (tumour diameter, 2.3 mm) for 5 days post-implantation, 22 mm^3 for 10 days post-implantation, 43 mm^3 for 20 days post-implantation and 77 mm^3 for 30 days post-implantation. At 15 min post-intraperitoneal injection of aqueous d-luciferin sodium salt (500 μmol kg^−1) solution into mice with different tumour sizes, the bioluminescence signals from the tumour sites were recorded with the IVIS imaging system under the bioluminescence mode with an open filter and automatic acquisition time. […]

[3] = Heat generation study; assay type: physicochemical; settings: 100 μM, X-ray 5 mGy
Protocol: IDPASu (100 μM, 100 μL) solution and PBS in a round cap with the diameter of 1 cm were prepared and then irradiated by X-ray at dose of 5 mGy (250 μGy·s^−1 for 20 s), respectively. The temperatures of the IDPASu solution and PBS were recorded by FUR Infrared Camera (FLIR A35-Series, FUR Systems).

[4] = ^1O2 generation upon X-ray irradiation (ESR, TEMP trap); assay type: physicochemical; settings: X-ray irradiation, ESR
Protocol: To study ^1O2 generation, a mixture of DPAS or IDPAS (100 M) and TEMP (10 mM) in PBS (0.01 M, pH 7.4, 50% DMSO) was irradiated by X-rays at 2 Gy (100 mGy s^−1 for 20 s) or 5 mGy (250 μGy s^−1 for 20 s). The ESR signals of the mixture were recorded with a Bruker A300 instrument. The ESR signal of the free radical 2,2,6,6-tetramethyl-1-piperidinyloxyl (g=2.0060) was generated by the reaction of ^1O2 with TEMP. The ^1O2 quencher NaN3 (1 mM) was added to validate the afterglow mechanism of IDPASu. Additionally, other commercially available radio sensitizers (such as acridine orange, hematoporphyrin and verteporfin) were measured and compared. The procedure of block depths was similar to that of the tissue penetration depth study and the ^1O2 generation for different depth tissues was measured. The ESR signal changes of MRAP in the absence or presence of CatB were measured in a similar way. The ESR signals of 2,2,6,6-tetramethyl-1-piperidinyloxyl from the reaction of ^1O2 with TEMP were plotted as a function of the concentration of ^1O2, which was generated by the addition of NaOCl to H2O2. This generated the standard curve between the ESR intensity and ^1O2 concentration.

[5] = HPLC analysis of IDPASu after X-ray irradiation; assay type: physicochemical
Protocol: HPLC purification and analyses were performed with an Agilent 1260 system using methanol/H2O or acetonitrile/H2O as an eluent. X-ray irradiation was conducted with MOXTEK MAGPRO (Moxtek, Inc. 452 West 1260 North Orem, UT 84057) and the dose was calibrated by RAYSAFE R/F X2 X (FLUKE, USA). White-light irradiation was used by a xenon lamp PLS-SEX300D (Beijing Perfectlight Technology Co., Ltd.).
To study the radio afterglow mechanism, the sample of IDPASu after X-ray irradiation was analysed with HPLC and high-resolution mass spectrometry.

[6] = X-ray 2 Gy, 100 mGy s^−1 for 20 s

- heat generation upon radiation [3]: did not cause any heat generation
- conversion yield to activated IDPASu (peak at 6.0 min) [5, 6]: 7.6%
- conversion yield to dioxetane compound (peak at 14.8 min) [5, 6]: 3.3%
- luminophore consumed by one cycle of irradiation ([5]; one cycle at 250 μGy s^−1 for 20 s, HPLC): ~ 3%
SMILES: COC(=C1C2CC3CC(C2)CC1C3)c1cc(O)c(I)cc1/C=C/C1=CC(=C(C#N)C#N)c2ccccc2S1 [IDPASu]
- radio afterglow signal through ~15 cm tissue versus IDPASu without X-ray irradiation and tissue ([1]; 15 cm chicken breast tissue): ~ 4.2 fold
- penetration depth, Detection with tissue (induction without tissue) ([1]; X-ray 0.005 Gy): 15 cm
- penetration depth, Induction and detection through tissue ([1]; X-ray 0.005 Gy): 5 cm
- radio afterglow intensity at tissue depth of 1 cm ([1]; induction by X-ray through tissue, detection without tissue): ~ 1.79×10^6 photons s^−1 cm^−2 sr^−1
- photoafterglow intensity at tissue depth of 1 cm ([1]; induction by light through tissue, detection without tissue): 7.20×10^4 photons s^−1 cm^−2 sr^−1
- Intensity per dose per mouse [2]: 1.27 × 10^6 (p/s/cm2/sr)/(μg)
- ^1O2 generation / radiodynamic activity [4]: the highest
